Source: ChEMBL document CHEMBL2073888, “Dehydrothyrsiferol does not modulate multidrug resistance-associated protein 1 resistance: a functional screening system for MRP1 substrates” (Int J Mol Med, 2002)

Legend:
[1] = target: Multidrug resistance-associated protein 1 (Homo sapiens, UniProt P33527); assay: TP_TRANSPORTER: inhibition of CFDA efflux (CFDA: 1 uM, DHT: 5-50 uM) in HL60/Adr cells; type: functional, cell-based
[2] = target: Multidrug resistance-associated protein 1 (MRP1) (Homo sapiens, UniProt P33527); assay: TP_TRANSPORTER: inhibition of CFDA efflux (CFDA: 1 uM, Genistein: 10 mM) in HL60/Adr cells; type: functional, cell-based; details: probe CFDA, read-out: Activity
Sequence of Multidrug resistance-associated protein 1 (MRP1) (P33527 whole entry): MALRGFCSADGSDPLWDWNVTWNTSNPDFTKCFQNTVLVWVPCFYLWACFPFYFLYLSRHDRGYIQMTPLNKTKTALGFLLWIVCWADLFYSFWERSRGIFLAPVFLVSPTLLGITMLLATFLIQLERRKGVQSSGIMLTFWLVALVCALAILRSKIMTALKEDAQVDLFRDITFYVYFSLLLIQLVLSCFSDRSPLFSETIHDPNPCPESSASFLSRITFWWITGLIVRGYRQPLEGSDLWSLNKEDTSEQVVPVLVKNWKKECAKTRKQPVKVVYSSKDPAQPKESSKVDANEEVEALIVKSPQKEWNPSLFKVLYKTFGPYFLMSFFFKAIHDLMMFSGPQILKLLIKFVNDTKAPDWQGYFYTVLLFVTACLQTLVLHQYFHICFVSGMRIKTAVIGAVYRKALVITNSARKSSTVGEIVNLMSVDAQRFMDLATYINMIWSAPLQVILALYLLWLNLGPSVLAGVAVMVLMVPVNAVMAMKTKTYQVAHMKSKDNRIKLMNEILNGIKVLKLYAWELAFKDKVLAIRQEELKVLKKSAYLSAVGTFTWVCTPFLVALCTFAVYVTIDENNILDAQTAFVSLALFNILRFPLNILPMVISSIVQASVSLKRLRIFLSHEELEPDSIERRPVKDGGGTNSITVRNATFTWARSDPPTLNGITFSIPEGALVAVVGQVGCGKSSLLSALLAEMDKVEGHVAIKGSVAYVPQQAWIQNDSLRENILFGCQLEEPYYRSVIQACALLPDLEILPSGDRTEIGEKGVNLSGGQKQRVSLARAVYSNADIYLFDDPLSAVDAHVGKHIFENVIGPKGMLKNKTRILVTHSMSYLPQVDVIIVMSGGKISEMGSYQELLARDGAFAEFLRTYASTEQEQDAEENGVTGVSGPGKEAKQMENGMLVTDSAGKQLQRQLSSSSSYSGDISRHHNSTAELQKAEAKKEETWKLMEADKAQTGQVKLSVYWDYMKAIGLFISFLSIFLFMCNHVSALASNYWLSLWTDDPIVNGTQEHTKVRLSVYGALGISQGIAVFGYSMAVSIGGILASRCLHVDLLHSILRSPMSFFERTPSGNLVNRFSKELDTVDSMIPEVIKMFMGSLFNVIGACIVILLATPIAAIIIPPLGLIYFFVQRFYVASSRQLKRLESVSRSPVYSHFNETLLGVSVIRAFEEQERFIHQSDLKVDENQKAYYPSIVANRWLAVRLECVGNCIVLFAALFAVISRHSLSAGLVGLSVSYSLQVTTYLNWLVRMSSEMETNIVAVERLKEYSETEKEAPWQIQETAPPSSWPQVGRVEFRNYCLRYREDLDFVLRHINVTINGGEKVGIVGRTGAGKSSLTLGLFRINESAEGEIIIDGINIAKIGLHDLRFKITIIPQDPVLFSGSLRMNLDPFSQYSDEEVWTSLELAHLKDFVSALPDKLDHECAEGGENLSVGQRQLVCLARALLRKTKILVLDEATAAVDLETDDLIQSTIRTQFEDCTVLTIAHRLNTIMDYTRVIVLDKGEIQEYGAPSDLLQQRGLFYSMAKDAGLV

Sequence of Multidrug resistance-associated protein 1 (P33527 whole entry): as above

| inhibition at 10 mM [2] [%] | SMILES | Activity [1] |
| --- | --- | --- |
|  | C=C(CC[C@H](O)[C@@]1(C)CC[C@H](C(C)(C)O)O1)[C@H]1CC[C@H]2O[C@@H]([C@]3(C)CC[C@@H](Br)C(C)(C)O3)CC[C@]2(C)O1 [DEHYDROTHYRSIFEROL] | is not an inhibitor [-] |
| 94.6 | O=c1c(-c2ccc(O)cc2)coc2cc(O)cc(O)c12 [GENISTEIN] |  |
